According to US20180057580A1, “ANTI-GREMLIN-1 (GREM1) ANTIBODIES AND METHODS OF USE THEREOF FOR TREATING PULMONARY ARTERIAL HYPERTENSION” (priority 2016, published 2018):

B1: H4H6245P: fully human anti-GREM1 antibody, HCVR/LCVR SEQ ID NOs 434/442; relation to H4H6245P2 not stated (antibody, V domains shown)
VH: EVQLVESGGGLVQPGGSLRLSCAASGFTFNSFWMSWVRQAPGKGLEWVANIKQDGSEKYYVDSVKGRFTISRDNAKNSVYLQMNSLRAEDTAVYYCARDLVTSFDYWGQGTLVTVSS
VL: DIQMTQSPSSLSASVGDRVTITCQASQDINNYLNWYQQKPGKAPKLLIYDASYLETGVPSGFSGSGSGTDFTFTISSLQPEDIATYYCQQYDSLPYTFGQGTKLEIK

What was measured:
[1] = system: Sugen 5416/chronic hypoxia mouse model; experiment: Study 3: 6 weeks Sugen5416/chronic hypoxia mouse model of pulmonary hypertension, ultrasound assessment; assay type: in vivo
Method: Eleven to thirteen week old Taconic C57BL/6 mice were used. Mice were separated into treatment groups by weight such that starting body weights were similar among different groups. Cages were selected to either remain at about 21% O2 (normobaric normoxia) or placed into 10% O2 (normobaric hypoxia) chamber (a modified 3′ Semi-Rigid Isolator unit, Charles River) that maintained low O2 levels with adjustment of N2 flow to a steady intake of room air. Mice were administered Sugen5416 (Sigma, Cat#58442; VEGFR inhibitor subcutaneously at 20 mg/kg weekly for 6 weeks) and drugs or saline starting on day 21. A group of mice (n=10) housed in normobaric normoxia cages were subcutaneously administered saline at 5 mL/kg twice per week for three weeks, while mice housed in normobaric hypoxia cages were separated into 5 treatment groups including a group of mice (n=10) subcutaneously treated with saline at 5 mL/kg twice per week for three weeks, a group of mice (n=9) orally administered Bosentan (Sequoia Research Products Cat SRP02325b) at 300 mg/kg every day for three weeks, a group of mice (n=10) subcutaneously administered an isotype control antibody at 25 mg/kg twice per week for three weeks, a group of mice (n=10) subcutaneously treated with the anti-Gremlin-1 antibody at 25 mg/kg twice a week for three weeks, a group of mice (n=9) subcutaneously treated with an anti-Gremlin-1 antibody at 25 mg/kg twice a week for three weeks and orally administered Bosentan at 300 mg/kg every day for three weeks. [table] On the last day of the study, pulmonary artery size and right ventricular function and dimensions were assessed in each mouse using a high frequency ultrasound system (Vevo 2100, VisualSonics). For the assessment, mice were anesthetized (with 1.5% isoflurane at a rate of 1.0 cc/mL of medical grade air) and their temperature was monitored with a rectal temperature probe and held at approximately 37° C. with a heated platform (MouseMonitorS, Indus Instruments) and a warming lamp. Both brightness-mode (B-mode) and motion-mode (M-mode) imaging were used. B-mode imaging of the mouse heart in cross-section was used to determine pulmonary artery cross-sectional area (PA CSA) at the level of the pulmonary valve. M-mode imaging was used to determine the pulsed wave velocity time integral (VTI), which is derived from the area under the curve of representative Doppler tracings of blood flow through the pulmonary artery. Right ventricular stroke volume (RV SV) was calculated from the product of PA CSA and VTI. Right ventricular cardiac output (RV CO) was calculated from the product of SV and heart rate (HR). M-mode imaging was used to determine right ventricular free wall (RVFW) thickness during diastole and systole. Animals were returned to their home cages before right ventricular pressure assessment.

[2] = system: chronic hypoxia-induced pulmonary arterial hypertension mouse model; experiment: Study 1: 4 week chronic hypoxia mouse model of pulmonary arterial hypertension, ultrasound assessment; assay type: in vivo; settings: study not given
Text: For both studies, eleven to thirteen-week-old Taconic C57BL/6 mice were used. Mice were separated into treatment groups by weight such that starting body weights were similar among different groups. Cages were selected to either remain at about 21% O2 (normobaric normoxia) or placed into a 10% O2 (normobaric hypoxia) chamber (a modified 3′ Semi-Rigid Isolator unit, Charles River) that maintained low O2 levels with adjustment of N2 flow to a steady intake of room air.
For the first study (Study 1), mice were administered drugs or saline starting on day 14. […]
On the last day of each study, pulmonary artery size and right ventricular function and dimensions were assessed in each mouse using a high frequency ultrasound system (Vevo 2100, VisualSonics). For the assessment, mice were anesthetized (with 1.5% isoflurane at a rate of 1.0 cc/mL of medical grade air) and their temperature was monitored with a rectal temperature probe and held at approximately 37° C. with a heated platform (MouseMonitorS, Indus Instruments) and a warming lamp. […] Right ventricular stroke volume (RV SV) was calculated from the product of PA CSA and VTI. Right ventricular cardiac output (RV CO) was calculated from the product of SV and heart rate (HR). […]

[3] = Study 3, normobaric hypoxia + Sugen5416 6 weeks, 300 mg/kg PO daily from day 21

| Molecule | PA CSA greater than hypoxic saline-treated group ([1]; Study 3, Sugen5416/hypoxia, 300 mg/kg PO daily, significant) [%] | Heart rate (Ave ± SEM) [1, 3] [beats/min] | PA CSA (Ave ± SEM) [1, 3] | Right Ventricular cardiac output (Ave ± SEM) [1, 3] | Stroke Volume (Ave ± SEM) [1, 3] | Pulmonary artery size (cross-sectional area), result in words ([2]; FIG. 1A legend) | Right ventricular stroke volume, result in words ([2]; FIG. 1B legend) |
| --- | --- | --- | --- | --- | --- | --- | --- |
| COc1ccccc1Oc1c(NS(=O)(=O)c2ccc(C(C)(C)C)cc2)nc(-c2ncccn2)nc1OCCO [Bosentan] | ~43 | 509.7 ± 18.9 | 1.724 ± 0.074^%%% mm^2 | 17.81 ± 1.46^%% ml/min | 35.51 ± 3.22^%% ul | – | – |
| B1 | – | – | – | – | – | near normoxic levels | near normoxic levels |
